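Growth conditions: 96-well plates. Treatment: test compound, 48 hours, 5 concentrations. Analysis: linear interpolation between bracketing concentrations; unreached endpoints set to highest concentration. TGI marks complete inhibition of growth.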
Experiments:
Assay in all cases: NCI tumour cell line growth inhibition, 48 h
786-0 renal = test system: 786-0 renal
A498 renal = test system: A498 renal
A549 NSCLC = test system: A549 NSCLC
ACHN renal = test system: ACHN renal
CAKI-1 renal = test system: CAKI-1 renal
CCRF-CEM leukemia = test system: CCRF-CEM leukemia
COLO 205 colon = test system: COLO 205 colon
DLD-1 colon = test system: DLD-1 colon
DMS 114 small cell lung = test system: DMS 114 small cell lung
DMS 273 small cell lung = test system: DMS 273 small cell lung
EKVX NSCLC = test system: EKVX NSCLC
HCC-2998 colon = test system: HCC-2998 colon
HCT-116 colon = test system: HCT-116 colon
HCT-15 colon = test system: HCT-15 colon
HL-60(TB) leukemia = test system: HL-60(TB) leukemia
HOP-18 NSCLC = test system: HOP-18 NSCLC
HOP-62 NSCLC = test system: HOP-62 NSCLC
HOP-92 NSCLC = test system: HOP-92 NSCLC
HT29 colon = test system: HT29 colon
IGROV1 ovarian = test system: IGROV1 ovarian
K-562 leukemia = test system: K-562 leukemia
KM12 colon = test system: KM12 colon
LXFL 529 NSCLC = test system: LXFL 529 NSCLC
M14 melanoma = test system: M14 melanoma
M19-MEL melanoma = test system: M19-MEL melanoma
MALME-3M melanoma = test system: MALME-3M melanoma
MOLT-4 leukemia = test system: MOLT-4 leukemia
NCI-H226 lung = test system: NCI-H226 lung
NCI-H23 lung = test system: NCI-H23 lung
NCI-H460 lung = test system: NCI-H460 lung
NCI-H522 lung = test system: NCI-H522 lung
OVCAR-3 ovarian = test system: OVCAR-3 ovarian
OVCAR-4 ovarian = test system: OVCAR-4 ovarian
OVCAR-5 ovarian = test system: OVCAR-5 ovarian
OVCAR-8 ovarian = test system: OVCAR-8 ovarian
RPMI-8226 leukemia = test system: RPMI-8226 leukemia
SF-268 CNS = test system: SF-268 CNS
SF-295 CNS = test system: SF-295 CNS
SF-539 CNS = test system: SF-539 CNS
SK-MEL-2 melanoma = test system: SK-MEL-2 melanoma
SK-MEL-28 melanoma = test system: SK-MEL-28 melanoma
SK-MEL-5 melanoma = test system: SK-MEL-5 melanoma
SK-OV-3 ovarian = test system: SK-OV-3 ovarian
SN12C renal = test system: SN12C renal
SNB-19 CNS = test system: SNB-19 CNS
SNB-75 CNS = test system: SNB-75 CNS
SNB-78 CNS = test system: SNB-78 CNS
SR leukemia = test system: SR leukemia
SW-620 colon = test system: SW-620 colon
TK-10 renal = test system: TK-10 renal
U251 CNS = test system: U251 CNS
UACC-257 melanoma = test system: UACC-257 melanoma
UACC-62 melanoma = test system: UACC-62 melanoma
UO-31 renal = test system: UO-31 renal
BT-549 breast = test system: BT-549 breast
DU-145 prostate = test system: DU-145 prostate
HS 578T breast = test system: HS 578T breast
LOX IMVI melanoma = test system: LOX IMVI melanoma
MCF7 breast = test system: MCF7 breast
MDA-MB-231 breast = test system: MDA-MB-231 breast
MDA-MB-435 = test system: MDA-MB-435
MDA-N = test system: MDA-N
NCI/ADR-RES ovarian = test system: NCI/ADR-RES ovarian
PC-3 prostate = test system: PC-3 prostate
RXF 393 renal = test system: RXF 393 renal
T-47D breast = test system: T-47D breast

Measured: TGI

c1ccc(C2=NOC3C4CCC(C4)C23)cc1 (configuration not stated)
not listed: BT-549 breast | DU-145 prostate | HS 578T breast | LOX IMVI melanoma | MCF7 breast | MDA-MB-231 breast | MDA-MB-435 | MDA-N | NCI/ADR-RES ovarian | PC-3 prostate | RXF 393 renal | T-47D breast
> 100 µM: all other assays above

CC1=NN(c2ccc(S(=O)(=O)O)cc2)C2(C1)C(Cl)C(=O)N2c1nc2ccccc2s1 (configuration not stated)
not listed: DLD-1 colon | DMS 114 small cell lung | DMS 273 small cell lung | HOP-18 NSCLC | LXFL 529 NSCLC | M19-MEL melanoma | SF-539 CNS | SNB-78 CNS
> 100 µM: all other assays above

Source: PubChem BioAssay (NCI)
